# Measurements from US5300527A, “Alkylamino-and alkylamino alkyl diarylketones” (Hoechst-Roussel Pharmaceuticals Incorporated, priority 1992, dated 1994).
# Counter-ions that a name gives are not always drawn. Like-named read-outs stand apart in the source and are kept apart here.
# Key:
# [1] = test system: 2-phenyl-1,4-benzoquinone-induced writhing; assay: 2-phenyl-1,4-benzoquinone-induced writhing test in mice (analgesic activity); assay type: in vivo; conditions: Mus musculus, sc, read-out: Inhibition in Writhing (%)
# Text: Compounds of the present invention are useful as analgesic agents due to their ability to alleviate pain in mammals. […] Exptl. Biol. Med. 95, 729 (1957)].
# [2] = test system: scopolamine induced memory deficit; assay: Dark Avoidance Assay (reversal of scopolamine induced memory deficit); assay type: in vivo; conditions: mice
# Procedure: This utility can also be ascertained by determining the ability of these compounds to restore cholinergically deficient memory in the Dark Avoidance Assay. In this assay mice are tested for their ability to remember an unpleasant stimulus for a period of 24 hours. A mouse is placed in a chamber that contains a dark compartment; a strong incandescent light drives it to the dark compartment, where an electric shock is administered through metal plates on the floor. The animal is removed from the testing apparatus and tested again, 24 hours later, for the ability to remember the electric shock.
# If scopolamine, an anticholinergic that is known to cause memory impairment, is administered before an animal's initial exposure to the test chamber, the animal re-enters the dark compartment shortly after being placed in the test chamber 24 hours later. This effect of scopolamine is blocked by an active test compound, resulting in a greater interval before re-entry into the dark compartment.
# The results for an active compound are expressed as the percent of a group of animals in which the effect of scopolamine is blocked, as manifested by an increased interval between being placed in the test chamber and re-entering the dark compartment.
# [3] = mice, dose 20 mg/kg of body wt., subcutaneous
Structure (SMILES),"inhibition in vivo at 20 mg/kg [1, 3]",other results
CN(C)c1cccc(CC(=O)Cc2cccc(Cl)c2)c1 [1-(3-Chlorophenyl)-3-[3-(dimethylamino)phenyl]-2-propanone],51%,–
"CCC(=O)O[C@](Cc1ccccc1)(c1ccccc1)[C@H](C)CN(C)C [propoxyphene, reference compound]",–,inhibition in vivo at 3.9 mg/kg [1]: 50%
"CN(C)c1cccc(C(=O)C(F)(F)c2cccc(Cl)c2)c1 [2-(3-Chlorophenyl)-2,2-difluoro-1-[3-(dimethylamino)phenyl]ethanone hydrochloride]",–,inhibition in vivo at 20 mg/kg [1]: 50%
"CN(C)c1cccc(C(=O)C(F)(F)C(O)c2cccc(Cl)c2)c1 (centres unmarked) [3-(3-Chlorophenyl)-2,2-difluoro-3-hydroxy-1-[3-(dimethylamino)phenyl]propanone hydrochloride]",63%,–
CN(C)c1ccc(C(=O)C(F)c2cccc(Cl)c2)cc1 (centres unmarked) [2-(3-Chlorophenyl)-2-fluoro-1-[4-(dimethylamino)phenyl]ethanone],44%,–
"CNC(=O)Oc1ccc2c(c1)[C@]1(C)CCN(C)[C@@H]1N2C [physostigmine, reference compound]",–,"% of animals with scopolamine induced memory deficit reversal ([2]; dose 0.31 mg/kg, s.c. (reference)): 20%"
CN(C)c1cccc(C(=O)Cc2cccc(Cl)c2)c1.Cl [2-(3-Chlorophenyl)-1-[3-(dimethylamino)phenyl]ethanone hydrochloride],–,"% of animals with scopolamine induced memory deficit reversal ([2]; dose 0.16 mg/kg, s.c.): 40%"
CN(C)c1cccc(OCC(=O)Cc2cccc(Cl)c2)c1 [1-(3-Chlorophenyl)-3-[3-(dimethylamino)phenoxy]-2-propanone],41%,–
"CN(C)c1ccc(C(=O)C(F)(F)c2ccccc2)cc1 [2,2-Difluoro-1-[4-(dimethylamino)phenyl]-2-phenylethanone]",67%,–
CN(C)c1cccc(C(=O)COc2cccc(Cl)c2)c1 [2-(3-Chlorophenoxy)-1-[3-(dimethylamino)phenyl]ethanone],69%,–
"CN(C)c1cccc(CC(=O)C(F)(F)c2ccccc2)c1 [1,1-Difluoro-3-[3-(dimethylamino)phenyl-1-phenyl-2-propanone]",58%,–
